Results reported in paper PMC9521575, “Multiple tachykinins and their receptors characterized in the gastropod mollusk Pacific abalone: Expression, signaling cascades, and potential role in regulating lipid metabolism” (Frontiers in Endocrinology, 2022).
Non-standard residues stand in square brackets, D forms with d. Residues, ends and D or L forms follow the SMILES beside them. No end group written: not given here. pGlu = O=C1CC[C@@H](C(=O)O)N1

Tests used:
[1] = test system: Hdh-TKRL-mediated phosphorylation of ERK1/2; test: Western blotting of ERK1/2 phosphorylation in Hdh-TKRL-transfected HEK293 cells; type: cell-based, Human; conditions: inhibitor 10^-5 M pre-incubated 60 min, then Hdh-TK2-2 for 5 min, western blot
Experimental: (§1) HEK293 cells were seeded into 6-well plates (0.3 × 10^6 cells/well) and transfected with 3 μg of pcDNA3-HA-Hdh-TKR plasmids or vehicle pcDNA3-HA plasmid as described for the luciferase reporter assays. At 24 h after transfection, the cells were incubated with serum-free DMEM for 6 h at 37°C and then exposed to a PKA inhibitor (H89, 10^-5 M; Sigma-Aldrich) or PKC inhibitor (Gö6983, 10^-5 M; Sigma-Aldrich) for 60 min. After the medium was replace with fresh serum-free DMEM, the cells were exposed to Hdh-TK-2-2 peptide (5×10^-9 or 10^-7 M) or TPA (10^-7 M) for a further 5 min. The methods employed for cell lysate preparation, polyacrylamide gel electrophoresis, protein transfer to nitrocellulose membranes, and membrane washing were from a previous report ([39]). The membranes were incubated with a monoclonal mouse p44/42 MAPK, rabbit phospho-p44/42 MAPK (ERK1/2) (Thr202/Tyr204) (Cell Signaling, Danvers, MA, USA), or mouse GAPDH (Santa Cruz Biotechnology, Santa Cruz, CA, USA) primary antibody at 4°C for 16 h, followed by incubation with goat anti-mouse IgG-HRP or goat anti-rabbit IgG-HRP secondary antibody (Santa Cruz Biotechnology, Santa Cruz, CA, USA) at room temperature for 2 h. […]

[2] = test system: Hdh-TKRS-mediated phosphorylation of ERK1/2; test: Western blotting of ERK1/2 phosphorylation in Hdh-TKRS-transfected HEK293 cells; type: cell-based, Human; conditions: inhibitor 10^-5 M pre-incubated 60 min, then Hdh-TK2-2 for 5 min, western blot
Experimental: as §1

Hdh-TKRL [3] = test: Ca2+ mobilization assay (aequorin luminescence) in Hdh-TKRL-transfected CHO-K1 cells; type: cell-based, Haliotis discus hannai; conditions: Hdh-TKRL- and aequorin-expressing CHO-K1 cells; luminescence relative to maximal response at 10^-6 M; n = 3 or 4; read-out: EC50 on intracellular Ca2+ mobilization
Experimental: (§2) Ca^2+ mobilization assays were performed as described previously ([39]). Briefly, Chinese hamster ovary K1 (CHO-K1) cells were maintained in DMEM-F12 Nutrient Mixture Ham supplemented with 10% FBS (Hyclone) and 1% P/S (Invitrogen) at 37°C in 5% CO2. Cells were grown in a monolayer to 60% confluency in 100 mm dishes (1.5 × 10^6 cells) and transiently transfected with 2 μg of pcDNA3-HA-Hdh-TKR plasmid with 2 μg of a Ca^2+-reporter aequorin plasmid and 2 μg of Gαq plasmid using 18 μL of FuGENE6 transfection reagent (Promega). The cells were washed in assay buffer including phenol red-free DMEM/F-12 with 0.1% bovine serum albumin (BSA) and 1% P/S and collected by brief centrifugation. Probenecid (1.25 mM final concentration, Invitrogen) and coelenterazine (5 μM, Gold Biotech., St. Louis, MO, USA) were added to resuspended CHO-K1 cells in 5 mL of assay buffer and the cells were gently agitated for 2.5 h using a magnetic stirrer at room temperature and shielded from light. […] While stirring gently, 50 μL of the cell suspension was injected into a luminescence microplate reader (Berthold Tech.), and luminescence was recorded for 20 s and for a further 10 s after injection of the assay buffer, including 0.2% Triton X-100 to measure the total Ca^2+ response. […]

Hdh-TKRS [4] = test: Ca2+ mobilization assay (aequorin luminescence) in Hdh-TKRS-transfected CHO-K1 cells; type: cell-based, Haliotis discus hannai; conditions: Hdh-TKRS- and aequorin-expressing CHO-K1 cells; luminescence relative to maximal response at 10^-6 M; n = 3 or 4; read-out: EC50 on intracellular Ca2+ mobilization
Experimental: as §2

Hdh-TKRL [5] = test: CRE-Luc luciferase reporter assay in Hdh-TKRL-expressing HEK293 cells; type: cell-based, Haliotis discus hannai; conditions: for EC50: HEK293 cells, peptide treatment 6 h, Supplementary Table 4, read-out: EC50 for Hdh-TKRL activation, CRE-Luc reporter
Experimental: (§3) Human embryonic kidney 293 (HEK293) cells were maintained in Dulbecco’s modified Eagle medium (DMEM; Gibco, Loughborough, UK) containing 10% fetal bovine serum (FBS; Hyclone, GE Healthcare, Chicago, IL, USA) and 1% penicillin/streptomycin (P/S; Invitrogen) at 37°C in 5% CO2. Sixteen hours before transfection, HEK293 cells were seeded into 24-well plates (5 × 10^4 cells/well). Transfection and luciferase activities were analyzed as previously described ([39]). Briefly, HEK293 cells were transfected with 100 ng of pcDNA3-HA expression plasmid containing Hdh-TKR (pcDNA3-HA-Hdh-TKR) or vehicle pcDNA3-HA plasmid using 0.9 μL of a polyethyleneimine transfection reagent (Sigma-Aldrich, St. Louis, MO, USA), along with 100 ng of a luciferase reporter plasmid containing cAMP response element (CRE-Luc) or serum response element (SRE-Luc), and 100 ng of a pRSV-β-galactosidase expression plasmid as an internal control. At 3 h after transfection, the culture medium was replaced by new DMEM with 1% P/S and 10% FBS, and the HEK293 cells were cultured for a further 30 h and then maintained in DMEM without FBS for 16 h. Finally, the HEK293 cells were treated with synthesized peptides, forskolin (Sigma-Aldrich), 12-O-tetradecanoylphorbol-13-acetate (TPA; Sigma-Aldrich), or an equal volume of peptide-free medium (as vehicle control) for 6 h. Luciferase activity was analyzed using a microplate-luminometer (Berthold Tech., Bad Wildbad, Germany) and normalized to the β-galactosidase activity, detected by absorbance at 405 nm using a microplate reader (Tecan, Mannedorf, Switzerland).

Hdh-TKRL [6] = test: SRE-Luc luciferase reporter assay in Hdh-TKRL-expressing HEK293 cells; type: cell-based, Haliotis discus hannai; conditions: for EC50: HEK293 cells, peptide treatment 6 h, Supplementary Table 4, read-out: EC50 for Hdh-TKRL activation, SRE-Luc reporter
Experimental: as §3

Hdh-TKRS [7] = test: CRE-Luc luciferase reporter assay in Hdh-TKRS-expressing HEK293 cells; type: cell-based, Haliotis discus hannai; conditions: for EC50: HEK293 cells, peptide treatment 6 h, Supplementary Table 3, read-out: EC50 for Hdh-TKRS activation, CRE-Luc reporter
Experimental: as §3

Hdh-TKRS [8] = test: SRE-Luc luciferase reporter assay in Hdh-TKRS-expressing HEK293 cells; type: cell-based, Haliotis discus hannai; conditions: for EC50: HEK293 cells, peptide treatment 6 h, Supplementary Table 3, read-out: EC50 for Hdh-TKRS activation, SRE-Luc reporter
Experimental: as §3

[9] = target: Hdh-TKRL (tachykinin receptor, long isoform) (Haliotis discus hannai)
[10] = target: Hdh-TKRS (tachykinin receptor, short isoform) (Haliotis discus hannai)
[11] = Hdh-TKRL-transfected HEK293 cells, n = 3
[12] = Hdh-TKRS-transfected HEK293 cells, n = 3

## COc1ccc2c(c1)c(C1=C(c3c[nH]c4ccccc34)C(=O)NC1=O)cn2CCCN(C)C [Gö6983]
[1]
  effect of inhibitor on Hdh-TKRL-mediated phosphorylation of ERK1/2: almost abolished
[2]
  effect of inhibitor on Hdh-TKRS-mediated phosphorylation of ERK1/2: almost abolished

## O=S(=O)(NCCNC/C=C/c1ccc(Br)cc1)c1cccc2cnccc12 [H89]
[1]
  effect of inhibitor on Hdh-TKRL-mediated phosphorylation of ERK1/2: decreased

## CC(C)[C@H](NC(=O)CNC(=O)[C@H](Cc1c[nH]cn1)NC(=O)[C@H](Cc1ccccc1)NC(=O)CNC(=O)[C@H](Cc1ccccc1)NC(=O)[C@H](Cc1c[nH]cn1)NC(=O)[C@@H]1CCCN1C(=O)[C@@H]1CCC(=O)N1)C(=O)N[C@@H](CCCNC(=N)N)C(N)=O [Hdh-TK1-3] ([pGlu]PHFGFHGVR-NH2)
Hdh-TKRL [3]
  EC50: 0.0011 µM
Hdh-TKRS [4]
  EC50: 0.0017 µM
Hdh-TKRL [5]
  EC50: 0.284 µM
Hdh-TKRL [6]
  EC50: 0.155 µM
Hdh-TKRS [7]
  EC50: 0.0151 µM
Hdh-TKRS [8]
  EC50: 0.171 µM

## APGWamide [abalone APGWamide peptide used as a negative control, reference compound]
Hdh-TKRL [5]; [11]
  CRE-Luc reporter activity (in words): did not activate
Hdh-TKRL [6]; [11]
  SRE-Luc reporter activity (in words): did not activate
Hdh-TKRS [7]; [12]
  CRE-Luc reporter activity (in words): did not activate
Hdh-TKRS [8]; [12]
  SRE-Luc reporter activity (in words): did not activate

## CC(C)[C@H](NC(=O)[C@H](Cc1ccccc1)NC(=O)CNC(=O)[C@H](Cc1ccccc1)NC(=O)[C@H](Cc1c[nH]cn1)NC(=O)[C@H](CCCNC(=N)N)NC(=O)CN)C(=O)NCC(=O)N[C@@H](CO)C(=O)N[C@@H](CCCNC(=N)N)C(N)=O [Hdh-TK2-1] (H-GRHFGFVGSR-NH2)
Hdh-TKRL [3]
  EC50: 0.0052 µM
Hdh-TKRS [4]
  EC50: 0.004 µM
Hdh-TKRL [5]
  EC50: 1.1 µM
Hdh-TKRL [6]
  EC50: 0.141 µM
Hdh-TKRS [7]
  EC50: 0.18 µM
Hdh-TKRS [8]
  EC50: 3.35 µM

## FGYVGSR-NH2 [Hdh-TK1-1]
[9]
  EC50 of intracellular Ca2+ mobilization (aequorin luminescence) in Hdh-TKRL-transfected CHO-K1 cells: 0.0094 µM
[10]
  EC50 of intracellular Ca2+ mobilization (aequorin luminescence) in Hdh-TKRS-transfected CHO-K1 cells: 0.0147 µM

## KPHFGFHGSR-NH2 [Hdh-TK2-2]
[9]
  EC50 of intracellular Ca2+ mobilization (aequorin luminescence) in Hdh-TKRL-transfected CHO-K1 cells: 0.0007 µM
[10]
  EC50 of intracellular Ca2+ mobilization (aequorin luminescence) in Hdh-TKRS-transfected CHO-K1 cells: 0.0012 µM

## TELGFGYVGSR-NH2 [Hdh-TK1-2]
[9]
  EC50 of intracellular Ca2+ mobilization (aequorin luminescence) in Hdh-TKRL-transfected CHO-K1 cells: 0.032 µM
[10]
  EC50 of intracellular Ca2+ mobilization (aequorin luminescence) in Hdh-TKRS-transfected CHO-K1 cells: 0.046 µM

B1: Hdh-TK1-3 (peptide)
peptide: [pGlu]PHFGFHGVR-NH2
SMILES: CC(C)[C@H](NC(=O)CNC(=O)[C@H](Cc1c[nH]cn1)NC(=O)[C@H](Cc1ccccc1)NC(=O)CNC(=O)[C@H](Cc1ccccc1)NC(=O)[C@H](Cc1c[nH]cn1)NC(=O)[C@@H]1CCCN1C(=O)[C@@H]1CCC(=O)N1)C(=O)N[C@@H](CCCNC(=N)N)C(N)=O
[9]
  EC50 of intracellular Ca2+ mobilization (aequorin luminescence) in Hdh-TKRL-transfected CHO-K1 cells: 0.0011 µM
[10]
  EC50 of intracellular Ca2+ mobilization (aequorin luminescence) in Hdh-TKRS-transfected CHO-K1 cells: 0.0017 µM

## GRHFGFVGSR-NH2 [Hdh-TK2-1]
[9]
  EC50 of intracellular Ca2+ mobilization (aequorin luminescence) in Hdh-TKRL-transfected CHO-K1 cells: 0.0052 µM
[10]
  EC50 of intracellular Ca2+ mobilization (aequorin luminescence) in Hdh-TKRS-transfected CHO-K1 cells: 0.004 µM
